Measured values taken from patent US12673073B2, “FasL-engineered biomaterials with immunomodulatory function” (University of Louisville Research Foundation, Inc., priority 2017, dated 2026).

Legend:
SA = SA (Streptomyces avidinii, UniProt P22629); settings: cited from earlier work
avidin = avidin (Gallus gallus, UniProt P02701); settings: cited from earlier work
[1] = system: allogeneic (Balb/c) islets in streptozotocin-diabetic C57BL/6 mice; assay: Allogeneic islet transplantation under the kidney capsule of diabetic mice; type: in vivo, mouse; settings: rapamycin injections 0.2 mg/kg daily 15 doses, without SA-FasL-engineered microgels
Procedure: Islet transplantation. BALB/c pancreatic islets were isolated using Liberase TL as a digestive enzyme (Roche Life Science) and purified by a Ficoll density gradient as previously published. […] To biotinylate islets, overnight cultured islets were incubated in 5 μM EZ-Link Sulfo-NHS-LC-Biotin (Thermo Scientific) for 30 min at room temperature, washed extensively with PBS to remove unbound biotin solution. […] Approximately, 500 islets were co-transplanted with 1000 microgels into streptozotocin diabetic (200 mg/kg i.p., diabetes (>250 mg/dL) confirmed on two consecutive days) C57BL/6 or B6.129(Cg)-Foxp3^tm3(DTR/GFP)Ayr (C57BL/6.FoxP3^EGFP/DTR) recipients, where indicated. For Treg depletion, islet graft recipients were injected i.p. with diphtheria toxin (50 μg/kg body weight) and depletion was confirmed 3 days later in peripheral blood lymphocytes using flow cytometry. Selected groups were also treated i.p. with rapamycin at 0.2 mg/kg daily for 15 doses starting the day of transplantation. Unmodified BALB/c islets co-transplanted with unmodified PEG gels were used as controls. Animals were monitored for blood glucose and >250 mg/dL blood glucose levels for two consecutive daily measurements were considered rejected. […] Blood glucose levels were assessed by tail prick before injection and 10, 20, 30, 60, 90, 120 minutes after injection. […]

SA, sequence (P22629 25-183): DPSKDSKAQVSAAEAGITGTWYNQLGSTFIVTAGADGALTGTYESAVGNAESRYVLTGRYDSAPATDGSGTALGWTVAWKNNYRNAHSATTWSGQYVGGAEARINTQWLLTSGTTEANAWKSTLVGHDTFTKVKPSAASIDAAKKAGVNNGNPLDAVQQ
avidin, sequence (P02701 25-152): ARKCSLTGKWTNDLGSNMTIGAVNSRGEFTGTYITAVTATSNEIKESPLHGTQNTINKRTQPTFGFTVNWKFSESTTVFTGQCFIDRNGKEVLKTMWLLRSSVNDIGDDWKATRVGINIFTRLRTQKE

Compound | affinity for SA (SA) | affinity for avidin (avidin) | median survival time (MST) of islet grafts [1] [days]
O=C(O)CCCC[C@@H]1SC[C@@H]2NC(=O)N[C@@H]21 [biotin] | 10^13 M^−1 | 10^15 M^−1 | –
CO[C@H]1C[C@@H]2CC[C@@H](C)[C@@](O)(O2)C(=O)C(=O)N2CCCC[C@H]2C(=O)O[C@H]([C@H](C)C[C@@H]2CC[C@@H](O)[C@H](OC)C2)CC(=O)[C@H](C)/C=C(\C)[C@@H](O)[C@@H](OC)C(=O)[C@H](C)C[C@H](C)/C=C/C=C/C=C/1C [rapamycin] | – | – | 36
